In patent US8044204B2, “8-methoxy-9H-isothiazolo[5,4-b]quinoline-3,4-diones and related compounds as anti-infective agents” (Achillion Pharmaceuticals, Inc., priority 2005, dated 2011):
≈ marks a conversion by molar mass, not a printed value. Counter-ions that a name gives are not always drawn. Like-named read-outs stand apart in the source and are kept apart here.

Assays:
Type in all cases: cell-based
[1] = tested on: MRSA strain ATCC 700699; experiment: Minimum Inhibitory Concentration (MIC) assay, Methicillin Resistant S. Aureus; conditions: Staphylococcus aureus
Text: It has been unexpectedly discovered that substitution of compounds of Formula I and Formula II with a methoxy substituent at the R8 position increases the anti-microbial activity of the compound against Methicillin resistant Staphylococcus Aureus bacteria while at the same time decreasing the cellular toxicity of the compound. The simultaneous increase in compound activity and decrease in compound toxicity provides a greater therapeutic range for compounds of Formula I and Formula II in which R8 is methoxy; i.e. the range of doses of such compounds that will produce beneficial effects without harmful side effects is increased. […] Therapeutic range is determined using a standard assay of cytotoxicity such as the Alamar blue assay provided in Example 10.
The antimicrobial activity of the compounds of the invention may be evaluated by a number of methods, including the following visual minimum inhibitory concentration (MIC) assay. This assay determines the minimum concentration of compound required to inhibit growth of a bacterial strain.
Minimum Inhibitory Concentration (MIC) Assay
Whole-cell antibacterial activity is determined by broth microdilution using conditions recommended by the NCCLS (see National Committee for Clinical Laboratory Standards. 2001. Performance standards for antimicrobial susceptibility testing: 11th informational supplement. Vol. 21, no. 1, M100-S11. National Committee for Clinical Laboratory Standards, Wayne, Pa.). Test compounds are dissolved in DMSO and diluted 1:50 in Mueller-Hinton II broth (Becton-Dickinson) to produce a 256 μg/ml stock solution. In a 96-well microtiter plate, the compound solution is serially two-fold diluted in Mueller-Hinton II broth. After the compounds are diluted, a 50 μl aliquot of the test organism (˜1×10^6 cfu/mL) is added to each well of the microtiter plate. The final test concentrations ranges from 0.125-128 μg/mL. Inoculated plates are incubated in ambient air at 37° C. for 18 to 24 hours. The organisms selected for testing included laboratory strains S. aureus ATCC 29213 and E. coli ATCC 25922 (strains purchased from American Type Culture Collection, Manassas, Va.), S. aureus FQR700699, and Paeruginosa 27853. The minimum inhibitory concentration (MIC) is determined as the lowest concentration of compound that inhibited visible growth of the test organism.

[2] = Cell viability staining with Alamar Blue (cytotoxicity CC50), Hep2; conditions: human
Method: To determine whether the microcidal effect observed against S. aureus and E. coli is specific to bacterial cells, compounds are screened for cell viability effects on several human cell types.
Optimal cell density is first determined by plating cells in a 96-well plate standard sterile tissue culture plates in 100 μl media, 10% FBS at six cell densities from 500 cells/well to 15,000 cells/well. A cell free well containing only media is used as a control. Cells are incubated at 37° C. in a 5% CO2 incubator for 24 hours. 10% culture volume (10 ul) of Alamar Blue (Biosource, DAL1100, 100 mL) is then added. Cells are incubated at 37° C. in a 5% CO2 incubator and read in a Victor V plate reader, 544 nm excitation, 590 nm emission, at 3, 4, and 24 hours after the addition of Alamar Blue. The cell number vs. change in fluorescence is plotted to determine linearity of signal vs. cell number. The optimal density varies between 500-15,000 cells/well depending on the specific cell type. The optimal density is selected based on the highest number of cells that is still in the linear response range.
Determination of Compound Cytotoxicity
Cells are plated at optimal cell density in a standard sterile tissue culture 96 well plate, and incubated at 37° C. O/N in a 5% CO2 incubator. 12 to 48 hours post-plating media is removed. The cells are washed 1 or 2 times with 1×PBS and replaced with fresh media containing the test compound in 1% DMSO. 24 to 72 hours after addition of compound, the media is removed, and the cells washed 1 to 2 times with 1×PBS. Fresh media containing 1/10 volume of Alamar Blue is then added. Plates are incubated 4 hours at 37° C. in a 5% CO2 incubator and read in a Victor V plate reader, 544 nm excitation, 590 nm emission.
Compounds are diluted to 20 micromolar in 1% DMSO and media and screened in duplicate to obtain single concentration cytotoxicity data. Eight concentration points from 0.78 micromolar to 100 micromolar, run in duplicate, are used to determine cyclotoxicity CC50 values. Cells with 1% DMSO and media are used as a negative control, compounds having a known CC50 against a particular cell type are used as positive controls.
The change in fluorescence vs. concentration of test compound is plotted to determine the cytotoxicity of the compound.
Sample media conditions, optimal plating densities, and positive control compounds for two cell types screened are presented in Table III.

[3] = tested on: S. aureus ATCC 29213; experiment: Minimum Inhibitory Concentration (MIC) assay, S. aureus; conditions: Staphylococcus aureus, ATCC29213; broth microdilution; read-out: MIC against S. Aureus
Summary of the method: (§1)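 NCCLS broth microdilution in Mueller-Hinton II broth, two-fold dilutions giving final 0.125–128 μg/mL, inoculum ~1×10^6 cfu/mL. Incubated in ambient air at 37 °C for 18–24 h. MIC read as lowest concentration with no visible growth.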

[4] = tested on: E. coli ATCC 25922; experiment: Minimum Inhibitory Concentration (MIC) assay, E. coli; conditions: Escherichia coli, ATCC25922; broth microdilution; read-out: MIC against E. coli
Summary of the method: as §1

[5] = in vitro; conditions: Chinese hamster
[6] = R6 = F, R8 = Methoxy compounds, MRSA ATCC 700699, read-out: MRSA MIC
[7] = Hep2 cells (ATCC CCL-23), R6 = F, R8 = Methoxy compounds, Hep2 ATCC CCL-23, read-out: hep2 CC50
[8] = Hep2 cells (ATCC CCL-23), R6 = F, R8 = H compounds, Hep2 ATCC CCL-23, read-out: hep2 CC50
[9] = broth microdilution, read-out: MIC against Methicillin Resistant S. Aureus
[10] = R6 = F, R8 = H compounds, MRSA ATCC 700699, read-out: MRSA MIC

MIC [1, 6] [µg/mL] | MIC [3] [µg/mL] | MIC [4] [µg/mL] | MIC [1, 9] [µg/mL] | MIC [1, 10] [µg/mL] | Structure (SMILES) | CC50 ([2]; R6 = F, R8 = Methoxy compounds, Hep2 ATCC CCL-23, read-out: hep2 CC50) [µM] | MIC ([1]; read-out: MRSA MIC) [µg/mL] | CC50 [2, 7] [µM] | CC50 [2, 8] [µM] | CC50 [2] [µM] | CC50 [5] [µM]
4 (≈ 9.56 µM) | ≤ 1 | ≤ 1 |  |  | COc1c(N2CCC(N(C)C)C2)c(F)cc2c(=O)c3c(=O)[nH]sc3n(C3CC3)c12 (stereo not drawn) [Compound 49, 9-cyclopropyl-7-(3-(dimethyl-amino)pyrrolidin-1-yl)-6-fluoro-8-methoxy-isothiazolo[5,4-b]quinoline-3,4(2H,9H)-dione] |  |  | 68 |  |  | 
0.1 (≈ 0.231 µM) | ≤ 1 | ≤ 1 | ≤ 1 |  | COc1c(N2CC[C@@H](C(C)(C)N)C2)c(F)cc2c(=O)c3c(=O)[nH]sc3n(C3CC3)c12 [Compound 53, (R)-7-(3-(2-aminopropan-2-yl)pyrrolidin-1-yl)-9-cyclopropyl-6-fluoro-8-methoxyiso-thiazolo[5,4-b]quinoline-3,4(2H,9H)-dione] |  |  | 8.5 |  |  | 
1.5 (≈ 3.47 µM) | ≤ 1 | ≤ 1 |  |  | COc1c(N2CC[C@H](C(C)(C)N)C2)c(F)cc2c(=O)c3c(=O)[nH]sc3n(C3CC3)c12 [Compound 58, (S)-7-(3-(2-aminopropan-2-yl)pyrrolidin-1-yl)-9-cyclopropyl-6-fluoro-8-methoxyiso-thiazolo[5,4-b]quinoline-3,4(2H,9H)-dione] |  |  | 61 |  |  | 
 | ≤ 1 |  |  | 16 (≈ 39.8 µM) | CC(C)(N)[C@H]1CCN(c2cc3c(cc2F)c(=O)c2c(=O)[nH]sc2n3C2CC2)C1 [Compound 61, (S)-7-(3-(2-aminopropan-2-yl)pyrrolidin-1-yl)-9-cyclopropyl-6-fluoroiso-thiazolo[5,4-b]quinoline-3,4(2H,9H)-dione] |  |  |  | 6.1 |  | 
0.42 (≈ 1.04 µM) | ≤ 1 | ≤ 1 | ≤ 1 |  | COc1c(N2CC[C@@H](CN)C2)c(F)cc2c(=O)c3c(=O)[nH]sc3n(C3CC3)c12 [Compound 63, (S)-7-(3-(aminomethyl)-pyrrolidin-1-yl)-9-cyclopropyl-6-fluoro-8-methoxyiso-thiazolo[5,4-b]quinoline-3,4(2H,9H)-dione] |  |  | 11 |  |  | 
 | ≤ 1 |  |  | 1 (≈ 2.67 µM) | NC[C@@H]1CCN(c2cc3c(cc2F)c(=O)c2c(=O)[nH]sc2n3C2CC2)C1 [Compound 64, (S)-7-(3-(aminomethyl)-pyrrolidin-1-yl)-9-cyclopropyl-6-fluoroiso-thiazolo[5,4-b]quinoline-3,4(2H,9H)-dione] |  |  |  | 3.1 |  | 
0.25 (≈ 0.618 µM) | ≤ 1 | ≤ 1 | ≤ 1 |  | COc1c(N2CC[C@H](CN)C2)c(F)cc2c(=O)c3c(=O)[nH]sc3n(C3CC3)c12 [Compound 67, (R)-7-(3-(aminomethyl)-pyrrolidin-1-yl)-9-cyclopropyl-6-fluoro-8-methoxyiso-thiazolo[5,4-b]quinoline-3,4(2H,9H)-dione] |  |  | 11 |  |  | 
 | ≤ 1 | ≤ 1 |  | 1 (≈ 2.67 µM) | NC[C@H]1CCN(c2cc3c(cc2F)c(=O)c2c(=O)[nH]sc2n3C2CC2)C1 [Compound 68, (R)-7-(3-(aminomethyl)-pyrrolidin-1-yl)-9-cyclopropyl-6-fluoroiso-thiazolo[5,4-b]quinoline-3,4(2H,9H)-dione] |  |  |  | 2.3 |  | 
0.13 (≈ 0.291 µM) | ≤ 1 | ≤ 1 | ≤ 1 |  | CNC(C)(C)[C@@H]1CCN(c2c(F)cc3c(=O)c4c(=O)[nH]sc4n(C4CC4)c3c2OC)C1 [Compound 76, (R)-9-cyclo-propyl-6-fluoro-8-methoxy-7-(3-(2-(methyl-amino)propan-2-yl)pyrrolidin-1-yl)isothia-zolo[5,4-b]quinoline-3,4(2H,9H)-dione] |  |  | 27 |  |  | 
 | ≤ 1 | ≤ 1 |  | 2 (≈ 4.8 µM) | CNC(C)(C)[C@@H]1CCN(c2cc3c(cc2F)c(=O)c2c(=O)[nH]sc2n3C2CC2)C1 [Compound 80, (R)-9-cyclo-propyl-6-fluoro-7-(3-(2-(methylamino)propan-2-yl)-pyrrolidin-1-yl)isothia-zolo[5,4-b]quinoline-3,4(2H,9H)-dione] |  |  |  | 0.57 |  | 
 |  |  |  | 2 (≈ 5.15 µM) | CN(C)C1CCN(c2cc3c(cc2F)c(=O)c2c(=O)[nH]sc2n3C2CC2)C1 (stereo not drawn) [Compound 114, 9-cyclo-propyl-7-(3-(dimethyl-amino)pyrrolidin-1-yl)-6-fluoroiso-thiazolo[5,4-b]quinoline-3,4(2H,9H)-dione] |  |  |  | 3 |  | 
 |  |  |  |  | CC(C)(C)c1ccc(C(O)CCCN2CCC(C(O)(c3ccccc3)c3ccccc3)CC2)cc1 (stereo not drawn) [Terfenadine, reference compound] |  |  |  |  | 3 to 5 | 4.3 to 6.5

Structure (SMILES) | MIC [1, 6] [µg/mL] | MIC [3] [µg/mL] | MIC [4] [µg/mL] | MIC [1, 9] [µg/mL] | MIC [1, 10] [µg/mL] | CC50 ([2]; R6 = F, R8 = Methoxy compounds, Hep2 ATCC CCL-23, read-out: hep2 CC50) [µM] | MIC ([1]; read-out: MRSA MIC) [µg/mL] | CC50 [2, 7] [µM] | CC50 [2, 8] [µM] | CC50 [2] [µM] | CC50 [5] [µM]
COc1c(N2CCNCC2)c(F)cc2c(=O)c3c(=O)[nH]sc3n(C3CC3)c12 [Compound 38, 9-cyclopropyl-6-fluoro-8-methoxy-7-(piperazin-1-yl)isothia-zolo[5,4-b]quinoline-3,4(2H,9H)-dione] | 4.8 (≈ 12.3 µM) | ≤ 1 | ≤ 1 |  |  | 27 |  |  |  |  | 
COc1c(N2CC3CCCNC3C2)c(F)cc2c(=O)c3c(=O)[nH]sc3n(C3CC3)c12 (stereo not drawn) [Compound 45, 9-cyclopropyl-6-fluoro-8-methoxy-7-(octahydro-pyrrolo[3,4-b]pyridin-6-yl)isothia-zolo[5,4-b]quinoline-3,4(2H,9H)-dione, hydrochloride] |  | ≤ 1 | ≤ 1 |  |  |  | 2 | 93 |  |  | 
O=c1[nH]sc2c1c(=O)c1cc(F)c(N3CC4CCCNC4C3)cc1n2C1CC1 (stereo not drawn) [Compound 46, 9-cyclopropyl-6-fluoro-7-(octahydro-pyrrolo[3,4-b]pyridin-6-yl)isothia-zolo[5,4-b]quinoline-3,4(2H,9H)-dione, hydrochloride] |  | ≤ 1 | ≤ 1 |  |  |  | 4 |  | 4.7 |  | 
CC(C)(N)[C@@H]1CCN(c2cc3c(cc2F)c(=O)c2c(=O)[nH]sc2n3C2CC2)C1 [Compound 52, (R)-7-(3-(2-aminopropan-2-yl)pyrrolidin-1-yl)-9-cyclopropyl-6-fluoroisothia-zolo[5,4-b]quinoline-3,4(2H,9H)-dione, hydrochloride] |  | ≤ 1 | ≤ 1 | ≤ 1 |  |  | 0.38 |  | 0.55 |  | 
